Experimental data as given in ChEMBL document CHEMBL1201862, “PubChem BioAssay data set” (2004).
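Growth conditions: 96-well plates. Treatment: test compound, 48 hours, 5 concentrations. Analysis: linear interpolation between bracketing concentrations; unreached endpoints set to highest concentration. GI50: concentration for 50% inhibition of growth.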 Active and inactive are the calls of the source. Cut-off read from the data, not from the text of the source: active = GI50 up to about 1.1 µM and inactive = higher.

Tests used:
Test in all cases: NCI tumour cell line growth inhibition, 48 h
COLO 205 = system: COLO 205
SW-620 = system: SW-620
OVCAR-3 = system: OVCAR-3
NCI-H23 = system: NCI-H23
M14 = system: M14
IGROV-1 = system: IGROV-1
HOP-62 = system: HOP-62
HCT-116 = system: HCT-116
K562 = system: K562
SK-OV-3 = system: SK-OV-3
SNB-75 = system: SNB-75
786-0 = system: 786-0
OVCAR-8 = system: OVCAR-8
A549 = system: A549
SF-539 = system: SF-539
RPMI-8226 = system: RPMI-8226

Row | Structure (SMILES) | GI50 (COLO 205) | GI50 (SW-620) | GI50 (OVCAR-3) | GI50 (NCI-H23) | GI50 (M14) | GI50 (IGROV-1) | GI50 (HOP-62) | GI50 (HCT-116) | GI50 (K562) | GI50 (SK-OV-3) | GI50 (SNB-75) | GI50 (786-0) | GI50 (OVCAR-8) | GI50 (A549) | GI50 (SF-539) | GI50 (RPMI-8226)
1 | CC1NOC(=O)C1/N=N/c1ccc(Cl)cc1Cl (centres undefined) | 20 µM (inactive) | 7.98 µM (inactive) | 16.4 µM (inactive) | 20.8 µM (inactive) | 21 µM (inactive) | 26.9 µM (inactive) | 43 µM (inactive) | 21.9 µM (inactive) | 25.2 µM (inactive) | 29.3 µM (inactive) | 20.9 µM (inactive) | 18.7 µM (inactive) | 31.6 µM (inactive) | 23 µM (inactive) | 47.4 µM (inactive) | 
2 | CCOc1ccc(NC(=O)/C(Cc2nc3ccccc3nc2O)=N\O)cc1 | > 100 µM (inactive) | > 100 µM (inactive) | > 100 µM (inactive) | > 100 µM (inactive) | > 100 µM (inactive) | > 100 µM (inactive) | > 100 µM (inactive) | > 100 µM (inactive) | > 100 µM (inactive) | > 100 µM (inactive) | 70.1 µM (inactive) | > 100 µM (inactive) | > 100 µM (inactive) | > 100 µM (inactive) | > 100 µM (inactive) | > 100 µM (inactive)
3 | [N-]=[N+]=CC(=O)C1(C(=O)C=[N+]=[N-])CC1 | > 100 µM (inactive) | > 100 µM (inactive) | > 100 µM (inactive) | > 100 µM (inactive) | > 100 µM (inactive) | > 100 µM (inactive) | > 100 µM (inactive) | > 100 µM (inactive) | > 100 µM (inactive) | > 100 µM (inactive) | > 100 µM (inactive) | > 100 µM (inactive) | > 100 µM (inactive) | > 100 µM (inactive) | > 100 µM (inactive) | 
4 | CN1CCN(CCNc2ccc(CO)c3sc4ccccc4c(=O)c23)CC1 | 8.77 µM (inactive) | 4.18 µM (inactive) | 8.18 µM (inactive) | 12.9 µM (inactive) | 14.1 µM (inactive) | 11.1 µM (inactive) | 5.06 µM (inactive) | 5.69 µM (inactive) | 3.84 µM (inactive) |  | 9.48 µM (inactive) | 5.87 µM (inactive) | 9.38 µM (inactive) | 10.5 µM (inactive) | 13.2 µM (inactive) | 10.9 µM (inactive)
5 | CC(C)C(Nc1c2ccccc2[n+]([O-])c2ccccc12)C(=O)O (centres undefined) | 52.5 µM (inactive) | > 100 µM (inactive) | > 100 µM (inactive) | 36 µM (inactive) | 91.2 µM (inactive) | > 100 µM (inactive) | > 100 µM (inactive) | 44.6 µM (inactive) | 38.5 µM (inactive) | > 100 µM (inactive) | 58.9 µM (inactive) | > 100 µM (inactive) | 53.2 µM (inactive) | > 100 µM (inactive) |  | 19.7 µM (inactive)
6 | Nn1c(S)nnc1NNC(=O)C(=O)Nc1cc(Cl)c(Cl)cc1Cl | > 100 µM (inactive) | > 100 µM (inactive) | > 100 µM (inactive) | > 100 µM (inactive) | > 100 µM (inactive) | > 100 µM (inactive) | > 100 µM (inactive) | > 100 µM (inactive) | 0.012 µM (active) | > 100 µM (inactive) | 15.5 µM (inactive) | > 100 µM (inactive) | > 100 µM (inactive) | > 100 µM (inactive) | > 100 µM (inactive) | 
7 | COc1ccc2c(CCNS(=O)(=O)c3ccccc3)c(C(C)=O)[nH]c2c1[N+](=O)[O-] | > 100 µM (inactive) | > 100 µM (inactive) | > 100 µM (inactive) | > 100 µM (inactive) | > 100 µM (inactive) | > 100 µM (inactive) | 86.7 µM (inactive) | > 100 µM (inactive) | > 100 µM (inactive) |  |  | 77.8 µM (inactive) | 65.2 µM (inactive) | > 100 µM (inactive) | 31.8 µM (inactive) | > 100 µM (inactive)
8 | N/N=C(\CC1OC(=O)c2ccccc21)c1ccco1 (centres undefined) | > 100 µM (inactive) | > 100 µM (inactive) | > 100 µM (inactive) | > 100 µM (inactive) | > 100 µM (inactive) | > 100 µM (inactive) |  | > 100 µM (inactive) | 50 µM (inactive) | > 100 µM (inactive) | > 100 µM (inactive) | < 0.01 µM (active) |  | > 100 µM (inactive) | > 100 µM (inactive) | 
9 | O=C(Nc1ccc(Cl)c(Cl)c1)C(=O)Nn1c(S)nc2ccccc2c1=O | > 100 µM (inactive) | > 100 µM (inactive) |  | 76.9 µM (inactive) | > 100 µM (inactive) | > 100 µM (inactive) | > 100 µM (inactive) | > 100 µM (inactive) | > 100 µM (inactive) | > 100 µM (inactive) | > 100 µM (inactive) | > 100 µM (inactive) | > 100 µM (inactive) | > 100 µM (inactive) | > 100 µM (inactive) | > 100 µM (inactive)
10 | COC(=O)c1ccc(OCc2ccc3oc(=O)c(-c4ccccc4)nc3c2)cc1 | 33.9 µM (inactive) | 57.3 µM (inactive) | 44.9 µM (inactive) | 71.3 µM (inactive) | > 100 µM (inactive) |  | > 100 µM (inactive) | > 100 µM (inactive) | 27.9 µM (inactive) |  | > 100 µM (inactive) | 28.9 µM (inactive) | > 100 µM (inactive) | > 100 µM (inactive) | > 100 µM (inactive) | 34.9 µM (inactive)
11 | CC(C)(C)c1cc(Oc2ccc(C#N)c(C#N)c2)cc(C(C)(C)C)c1 | > 100 µM (inactive) |  | > 100 µM (inactive) | > 100 µM (inactive) | > 100 µM (inactive) | > 100 µM (inactive) | > 100 µM (inactive) | 68.1 µM (inactive) | 83.2 µM (inactive) | > 100 µM (inactive) | > 100 µM (inactive) | 90.2 µM (inactive) | > 100 µM (inactive) | > 100 µM (inactive) | > 100 µM (inactive) | > 100 µM (inactive)
12 | COc1ccc(-c2cc(Cc3cccs3)c(=O)[nH]n2)cc1 | > 100 µM (inactive) | > 100 µM (inactive) | 29.6 µM (inactive) | 56.8 µM (inactive) |  | > 100 µM (inactive) |  | > 100 µM (inactive) |  | > 100 µM (inactive) | 29.5 µM (inactive) | > 100 µM (inactive) | > 100 µM (inactive) | 57 µM (inactive) | > 100 µM (inactive) | 
13 | O=C(Cc1ccccc1)N/N=C(/c1nc2ccc([N+](=O)[O-])cc2nc1O)C(O)c1ccco1 (centres undefined) | > 100 µM (inactive) | > 100 µM (inactive) |  | > 100 µM (inactive) | > 100 µM (inactive) | > 100 µM (inactive) | > 100 µM (inactive) | > 100 µM (inactive) | 44.4 µM (inactive) | > 100 µM (inactive) | > 100 µM (inactive) | > 100 µM (inactive) | > 100 µM (inactive) | > 100 µM (inactive) | > 100 µM (inactive) | > 100 µM (inactive)
